± gives the uncertainty stated by the source.
Key:
Test in all cases: CYP enzyme activity (probe substrate metabolite formation) fold change vs solvent control; higher = stronger induction of CYP activity
Conditions in all cases: HepaRG
[1] = target: CYP3A4 (UniProt P08684)
Method: (§1)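 Differentiated HepaRG cells were treated with 1, 5 or 10 µM of each PAH (0.5% DMSO) for 12, 24 or 48 h, then incubated for 3 h at 37 °C with a cocktail of isoform-specific CYP substrates (phenacetin for CYP1A2, bupropion for CYP2B6, amodiaquine for CYP2C8, tolbutamide for CYP2C9, mephenytoin for CYP2C19, propafenone for CYP2D6, atorvastatin for CYP3A4). Metabolite formation was quantified by LC-MS as a measure of CYP activity and reported as fold change over solvent control (mean ± SD, n=3). Values below the LLOQ were set to half the LLOQ.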

[2] = target: CYP2D6 (UniProt P10635)
Method: as §1

[3] = target: T1, CYP2C8 (UniProt P10632)
T1 sequence (whole entry): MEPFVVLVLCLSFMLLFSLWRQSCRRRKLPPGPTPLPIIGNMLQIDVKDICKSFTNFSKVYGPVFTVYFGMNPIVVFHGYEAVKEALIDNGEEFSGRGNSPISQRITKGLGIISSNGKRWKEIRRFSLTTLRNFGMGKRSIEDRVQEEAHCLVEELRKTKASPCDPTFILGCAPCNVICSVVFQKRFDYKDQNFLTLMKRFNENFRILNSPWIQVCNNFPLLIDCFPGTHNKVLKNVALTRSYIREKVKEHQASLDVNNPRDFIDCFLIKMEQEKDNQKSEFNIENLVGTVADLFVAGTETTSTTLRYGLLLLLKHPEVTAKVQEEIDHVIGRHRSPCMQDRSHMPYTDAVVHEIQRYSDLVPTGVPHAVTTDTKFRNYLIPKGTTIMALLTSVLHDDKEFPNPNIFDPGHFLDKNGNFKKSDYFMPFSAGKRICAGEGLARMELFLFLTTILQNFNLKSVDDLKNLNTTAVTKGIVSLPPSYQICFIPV
Method: as §1

[4] = target: T2, CYP2B6 (UniProt P20813)
T2 sequence (whole entry): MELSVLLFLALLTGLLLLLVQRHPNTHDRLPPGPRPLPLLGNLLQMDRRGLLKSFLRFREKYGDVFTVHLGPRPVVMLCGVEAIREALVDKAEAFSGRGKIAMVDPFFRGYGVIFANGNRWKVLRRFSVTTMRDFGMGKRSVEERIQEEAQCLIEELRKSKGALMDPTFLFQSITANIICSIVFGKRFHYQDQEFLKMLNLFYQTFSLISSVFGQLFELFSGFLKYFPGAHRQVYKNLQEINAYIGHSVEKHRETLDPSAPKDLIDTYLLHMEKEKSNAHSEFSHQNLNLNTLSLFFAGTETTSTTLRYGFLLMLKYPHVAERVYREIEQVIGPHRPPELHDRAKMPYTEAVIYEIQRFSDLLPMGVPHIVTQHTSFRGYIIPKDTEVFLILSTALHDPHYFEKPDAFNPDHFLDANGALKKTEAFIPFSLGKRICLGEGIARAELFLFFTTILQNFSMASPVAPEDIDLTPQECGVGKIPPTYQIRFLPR
Method: as §1

[5] = target: CYP2C19 (UniProt P33261)
Method: as §1

[6] = target: T3, CYP1A2 (UniProt P05177)
T3 sequence (whole entry): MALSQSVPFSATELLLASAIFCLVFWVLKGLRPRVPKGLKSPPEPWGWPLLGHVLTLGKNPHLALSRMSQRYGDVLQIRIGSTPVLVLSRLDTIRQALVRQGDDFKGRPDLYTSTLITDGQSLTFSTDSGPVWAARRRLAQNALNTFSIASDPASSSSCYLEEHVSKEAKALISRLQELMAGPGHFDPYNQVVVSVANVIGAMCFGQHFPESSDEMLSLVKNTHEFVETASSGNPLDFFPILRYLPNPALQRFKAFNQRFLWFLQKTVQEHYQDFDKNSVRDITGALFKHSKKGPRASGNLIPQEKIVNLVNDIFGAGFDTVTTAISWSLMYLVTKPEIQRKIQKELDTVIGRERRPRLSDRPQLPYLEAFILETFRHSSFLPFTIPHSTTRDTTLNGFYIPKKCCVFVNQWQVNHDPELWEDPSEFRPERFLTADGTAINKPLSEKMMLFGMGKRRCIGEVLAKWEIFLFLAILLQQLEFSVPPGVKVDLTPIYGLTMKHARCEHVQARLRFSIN
Method: as §1

[7] = target: CYP2C9 (UniProt P11712)
Method: as §1

Chain of CYP2C9 (P11712 whole entry): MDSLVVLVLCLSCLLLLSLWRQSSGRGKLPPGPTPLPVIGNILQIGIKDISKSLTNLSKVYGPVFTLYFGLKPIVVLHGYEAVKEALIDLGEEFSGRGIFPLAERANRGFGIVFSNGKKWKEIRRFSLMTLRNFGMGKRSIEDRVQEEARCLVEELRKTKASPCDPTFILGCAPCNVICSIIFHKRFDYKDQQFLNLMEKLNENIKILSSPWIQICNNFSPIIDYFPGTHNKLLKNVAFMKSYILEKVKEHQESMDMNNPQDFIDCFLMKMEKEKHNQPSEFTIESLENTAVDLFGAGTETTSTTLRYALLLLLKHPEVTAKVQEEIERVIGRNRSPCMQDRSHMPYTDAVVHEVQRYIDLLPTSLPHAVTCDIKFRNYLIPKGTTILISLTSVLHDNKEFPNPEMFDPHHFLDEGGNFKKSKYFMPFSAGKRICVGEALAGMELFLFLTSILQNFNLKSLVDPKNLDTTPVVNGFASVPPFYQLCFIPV
Chain of CYP2C19 (P33261 whole entry): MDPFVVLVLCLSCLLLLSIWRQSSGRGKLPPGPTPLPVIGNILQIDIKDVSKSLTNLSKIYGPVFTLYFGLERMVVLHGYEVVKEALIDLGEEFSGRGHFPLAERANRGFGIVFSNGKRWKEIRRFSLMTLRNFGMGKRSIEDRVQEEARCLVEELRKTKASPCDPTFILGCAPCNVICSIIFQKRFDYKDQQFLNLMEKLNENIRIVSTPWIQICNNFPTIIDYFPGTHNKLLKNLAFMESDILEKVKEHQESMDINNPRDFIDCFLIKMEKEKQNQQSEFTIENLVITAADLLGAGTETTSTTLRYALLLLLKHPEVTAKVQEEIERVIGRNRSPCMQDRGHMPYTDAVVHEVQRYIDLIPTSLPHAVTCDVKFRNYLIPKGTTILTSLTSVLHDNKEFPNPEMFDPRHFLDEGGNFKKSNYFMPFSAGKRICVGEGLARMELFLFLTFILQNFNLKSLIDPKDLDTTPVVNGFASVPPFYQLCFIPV
Chain of CYP2D6 (P10635 whole entry): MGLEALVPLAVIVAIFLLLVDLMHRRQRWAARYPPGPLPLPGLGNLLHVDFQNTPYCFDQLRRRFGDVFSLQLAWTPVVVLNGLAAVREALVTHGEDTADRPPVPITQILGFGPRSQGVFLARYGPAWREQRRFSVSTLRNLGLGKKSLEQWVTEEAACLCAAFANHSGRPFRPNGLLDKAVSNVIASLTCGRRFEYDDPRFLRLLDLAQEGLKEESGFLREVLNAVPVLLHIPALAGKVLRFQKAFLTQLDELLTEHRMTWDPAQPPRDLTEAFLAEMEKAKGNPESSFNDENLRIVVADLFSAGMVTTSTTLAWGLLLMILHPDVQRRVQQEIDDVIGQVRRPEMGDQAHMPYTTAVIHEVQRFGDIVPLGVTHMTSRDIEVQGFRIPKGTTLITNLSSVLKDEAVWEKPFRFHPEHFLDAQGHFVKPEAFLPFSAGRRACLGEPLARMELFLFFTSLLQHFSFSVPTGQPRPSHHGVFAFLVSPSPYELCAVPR
Chain of CYP3A4 (P08684 whole entry, canonical isoform): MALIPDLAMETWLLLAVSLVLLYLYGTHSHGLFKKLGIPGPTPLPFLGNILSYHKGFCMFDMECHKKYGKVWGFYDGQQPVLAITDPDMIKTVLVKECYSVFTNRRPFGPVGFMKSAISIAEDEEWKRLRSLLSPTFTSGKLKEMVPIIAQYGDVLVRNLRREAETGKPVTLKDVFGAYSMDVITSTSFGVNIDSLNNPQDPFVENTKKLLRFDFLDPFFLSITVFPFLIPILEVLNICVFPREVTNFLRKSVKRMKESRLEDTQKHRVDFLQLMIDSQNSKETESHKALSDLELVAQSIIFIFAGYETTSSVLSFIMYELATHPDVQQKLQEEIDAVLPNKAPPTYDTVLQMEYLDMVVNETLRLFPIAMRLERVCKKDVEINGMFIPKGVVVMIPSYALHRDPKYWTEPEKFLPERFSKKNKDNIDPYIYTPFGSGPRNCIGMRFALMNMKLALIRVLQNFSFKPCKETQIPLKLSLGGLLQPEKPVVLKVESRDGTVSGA

c1ccc2cc3c(ccc4ccccc43)cc2c1 [benzo[a]anthracene]
CYP enzyme activity
Conditions	[1]	[2]	[3]	[4]	[5]	[6]	[7]
1 µM, treatment time 12 h	0.717	0.865	0.978	0.781	0.754	1.41	0.88
1 µM, treatment time 24 h	0.662	0.833	0.978	0.901	0.826	1.01	1
1 µM, treatment time 48 h	0.702	0.696	1.01	0.683	0.862	0.817	0.927
5 µM, treatment time 12 h	0.809	1.66	0.953	1.1	0.94	5.62	0.995
5 µM, treatment time 24 h	0.844	1.15	0.973	1.45	0.934	4.68	1.02
5 µM, treatment time 48 h	0.754	0.774	0.898	0.896	1.003	1.98	0.989
10 µM, treatment time 12 h	0.907	2.55	0.992	1.11	0.934	9.59	0.949
10 µM, treatment time 24 h	0.855	1.41	0.875	1.63	0.925	9.37	1.02
10 µM, treatment time 48 h	0.702	0.712	0.792	0.97	0.882	3.86	0.849

c1ccc2c(c1)ccc1ccccc12 [phenanthrene]
CYP enzyme activity
Conditions	[1]	[2]	[3]	[4]	[5]	[6]	[7]
1 µM, treatment time 12 h	0.891	0.961	0.995	1.02	0.946	0.969	1.02
1 µM, treatment time 24 h	0.828	0.97	1.01	1.18	0.961	0.862	1.05
1 µM, treatment time 48 h	0.844	0.879	1.01	1.15	0.981	0.839	1.06
5 µM, treatment time 12 h	0.961	1.08	0.991	1.25	1.06	1.04	1.08
5 µM, treatment time 24 h	1.1	1.19	1.05	1.98	1.15	1.18	1.27
5 µM, treatment time 48 h	1.1	1.05	1.08	2.15	1.16	1.09	1.23
10 µM, treatment time 12 h	0.928	1.03	0.995	1.12	0.985	1.1	1.03
10 µM, treatment time 24 h	0.994	0.986	1.04	1.75	1.11	1.06	1.17
10 µM, treatment time 48 h	1.11	1.03	1.08	2.29	1.17	1.11	1.34
